The record followed here is patent US8129401B2, “Heterocyclic compounds useful for the treatment of inflammatory and allergic disorders: process for their preparation and pharmaceutical compositions containing them” (Glenmark Pharmaceuticals S.A., priority 2004, dated 2012).

Structures can show the parent of a compound that is named as a salt.

In the first experiment the test system is PDE4 enzyme. In words: Inhibition of phosphodiesterase enzymes (PDE4), [3H]cAMP hydrolysis assay. Format: biochemical. Particulars: PDE4 inhibition at 1 μM compound.
On to `COc1ccc(C(=O)Nc2c(Cl)cncc2Cl)c2c3c(sc12)CNCC3` [Example 08, N5 (3,5-dichloro-4-pyridyl)-8-methoxy-1,2,3,4-tetrahydrobenzo[4,5]thieno[2,3-c]pyridine-5-carboxamide hydrochloride], for which the “percent inhibition at 1 μM” value amounted to 31.75% at 1 μM.
For the compound `COc1ccc(C(=O)Nc2c(Cl)cncc2Cl)c2c3c(n(C)c12)CCN(C(=O)OC(C)(C)C)C3` [Example 10, tert-butyl 9-(3,5-dichloro-4-pyridylcarbamoyl)-6-methoxy-5-methyl-1,3,4,5-tetrahydro-1H-pyrido[4,3-b]indole-2-carboxylate], the “percent inhibition at 1 μM” value is listed as 27.74% at 1 μM.
The same measure, in the same setting: the figure for `COc1ccc(C(=O)Nc2c(Cl)cncc2Cl)c2c3c(n(CC4CC4)c12)CCN(C(=O)OC(C)(C)C)C3` [Example 12, tert-butyl 9-(3,5-dichloro-4-pyridylcarbamoyl)-6-methoxy-5-cyclopropylmethyl-1,3,4,5-tetrahydro-1H-pyrido[4,3-b]indole-2-carboxylate] is 48.79% at 1 μM.
Still for that read-out and setting: to `COc1ccc(C(=O)Nc2c(Cl)cncc2Cl)c2c3c(n(C)c12)CCN(C)C3` [Example 15, N9-(3,5-dichloro-4-pyridylcarbamoyl)-6-methoxy-2,5-methyl-1,3,4,5-tetrahydro-1H-pyrido[4,3-b]indole] belongs 12.90% at 1 μM.
The same measure, in the same setting: the figure for `COc1ccc(C(=O)Nc2ccncc2)c2c3c(n(C)c12)CCN(C(=O)OC(C)(C)C)C3` [Example 17, tert-butyl 9-(4-pyridinylcarbamoyl)-6-methoxy-5-methyl-1,3,4,5-tetrahydro-1H-pyrido[4,3-b]indole-2-carboxylate] is 33.67% at 1 μM.
Regarding `COc1ccc(C(=O)Nc2c(Cl)cncc2Cl)c2c3c(n(C)c12)C(=O)N(C)CC3` [Example 22, N-(3,5-dichloropyridin-4-yl)-2,9-dimethyl-8-methoxy-1-oxo-1,2,3,4-tetrahydro-β-carboline-5-carboxamide], the “percent inhibition at 1 μM” value is reported as 34.54% at 1 μM.
Turning to “N9-(3,5-dichloro-4-pyridylcarbamoyl)-6-methoxy-5-methyl-1,3,4,5-tetrahydro-1H-pyrido[4,3-b]indole hydrochloride [Example 13]”, the “percent inhibition at 1 μM” value amounted to 20.99% at 1 μM.

The experiment is the same for the next values; noted with them: PDE4 inhibition, 1 μM cAMP, 34° C.
Take `COc1ccc(C(=O)Nc2c(Cl)cncc2Cl)c2c1oc1cnncc12` [Example 01, N9-(3,5-dichloro-4-pyridyl)-6-methoxybenzo[4,5]furo[2,3-d]pyridazine-9-carboxamide]: the half-maximal inhibitory concentration (IC50) came to 1.38 nM.
Still for that read-out and setting: the figure for `COc1ccc(C(=O)Nc2c(Cl)cncc2Cl)c2c1oc1cncnc12` [Example 02, N9-(3,5-dichloro-4-pyridyl)-6-methoxybenzo[4,5]furo[3,2-d]pyrimidine-9-carboxamide] is 494 nM; for `COc1ccc(C(=O)Nc2c(Cl)cncc2Cl)c2c1oc1ccncc12` [Example 03, N9-(3,5-dichloro-4-pyridyl)-6-methoxybenzo[4,5]furo[3,2-c]pyridine-9-carboxamide] it is 0.73 nM.
Same read-out and setting: to `O=C(Nc1c(Cl)cncc1Cl)c1ccc(OC(F)F)c2oc3cnncc3c12` [Example 04, N9-(3,5-dichloro-4-pyridyl)-6-difluoromethoxybenzo[4,5]furo[2,3-d]pyridazine-9-carboxamide] belongs 3.41 nM; to `COc1ccc(C(=O)Nc2c(Cl)cncc2Cl)c2c3c(sc12)CN(C(=O)OC(C)(C)C)CC3` [Example 07, tert-butyl 5-(3,5-dichloro-4-pyridylcarbamoyl)-8-methoxy-1,2,3,4-tetrahydrobenzo[4,5]thieno[2,3-c]pyridine-2-carboxylate], 416 nM; to `COc1ccc(C(=O)Nc2c(Cl)cncc2Cl)c2c3c(n(Cc4ccccc4)c12)CCN(C(=O)OC(C)(C)C)C3` [Example 11, tert-butyl 9-(3,5-dichloro-4-pyridylcarbamoyl)-6-methoxy-5-benzyl-1,3,4,5-tetrahydro-1H-pyrido[4,3-b]indole-2-carboxylate], 177 nM.
The same measure, in the same setting: to `COc1ccc(C(=O)Nc2c(Cl)cncc2Cl)c2c3c(n(Cc4ccccc4)c12)CCNC3` [Example 14, N9-(3,5-dichloro-4-pyridylcarbamoyl)-6-methoxy-5-benzyl-1,3,4,5-tetrahydro-1H-pyrido[4,3-b]indole hydrochloride] belongs 3530 nM; to `COc1ccc(C(=O)Nc2c(Cl)cncc2Cl)c2c3c(n(Cc4ccccc4)c12)CCN(C)C3` [Example 16, N9-(3,5-dichloro-4-pyridylcarbamoyl)-6-methoxy-2-methyl-5-benzyl-1,3,4,5-tetrahydro-1H-pyrido[4,3-b]indole], 2280 nM; to `CCOC(=O)N1CCc2c(oc3c(OC)ccc(C(=O)Nc4c(Cl)cncc4Cl)c23)C1` [Example 19, N-(3,5-dichloropyridin-4-yl)-2-(ethoxycarbonyl)-8-methoxy-1,2,3,4-tetrahydro[1]benzofuro[2,3-c]pyridine-5-carboxamide], 7.53 nM.
`COc1ccc(C(=O)Nc2c(Cl)cncc2Cl)c2c3c(oc12)CNCC3` [Example 20, N-(3,5-dichloropyridin-4-yl)-8-methoxy-1,2,3,4-tetrahydro[1]benzofuro[2,3-c]pyridine-5-carboxamide hydrochloride] returned an IC50 of 17.4 nM.
On the same count and under the same terms, to `COc1ccc(C(=O)Nc2c(Cl)cncc2Cl)c2c3c(oc12)CCNC3` [Example 21, N-(3,5-dichloropyridin-4-yl)-6-methoxy-1,2,3,4-tetrahydro[1]benzofuro[3,2-c]pyridine-9-carboxamide hydrochloride] belongs 20.4 nM; to `O=C(Nc1c(Cl)cncc1Cl)c1ccc(OC(F)F)c2oc3ccncc3c12` [Example 23, N9-(3,5-dichloro-4-pyridyl)-6-difluoromethoxybenzo[4,5]furo[3,2-c]pyridine-9-carboxamide], 0.25 nM; to `O=C(Nc1c(Cl)c[n+]([O-])cc1Cl)c1ccc(OC(F)F)c2oc3cnncc3c12` [Example 25, 3,5-dichloro-4-(6-difluoromethoxybenzo[4,5]furo[2,3-d]pyridazine-9-ylcarboxamido)-1-pyridiniumolate], 3.99 nM.
The same measure, in the same setting: the figure for `O=C(Nc1c(Cl)c[n+]([O-])cc1Cl)c1ccc(OC(F)F)c2oc3ccncc3c12` [Example 26, 3,5-dichloro-4-(6-difluoromethoxybenzo[4,5]furo[3,2-c]pyridin-9-ylcarboxamido)-1-pyridiniumolate] is 2.69 nM.
The same measure, in the same setting: the figure for `O=C(Nc1c(Cl)c[n+]([O-])cc1Cl)c1ccc(OC(F)F)c2oc3ccncc3c12` [Example 27, 3,5-dichloro-4-(6-difluoromethoxybenzo[4,5]furo[3,2-c]pyridin-9-ylcarboxamido)-1-pyridiniumolate sodium] is 2.42 nM.

The experiment is the same for the next values; noted with them: PDE4 inhibition, 1 μM cAMP, 34° C.; sodium.
`O=C(Nc1c(Cl)cncc1Cl)c1ccc(OC(F)F)c2oc3ccncc3c12` [Example 24, N9-(3,5-dichloro-4-pyridyl)-6-difluoromethoxybenzo[4,5]furo[3,2-c]pyridine-9-carboxamide sodium] had an IC50 of 0.02 nM.

The experiment is the same for the next values; noted with them: PDE4 inhibition, 1 μM cAMP, 34° C.; sodium salt.
Turning to `O=C(Nc1c(Cl)cncc1Cl)c1ccc(OC(F)F)c2oc3cnncc3c12` [Example 05, N9-(3,5-dichloro-4-pyridyl)-6-difluoromethoxybenzo[4,5]furo[2,3-d]pyridazine-9-carboxamide sodium salt], the IC50 is 4.15 nM.
Same read-out and setting: to `COc1ccc(C(=O)Nc2c(Cl)cncc2Cl)c2c1oc1cnncc12` [Example 18, N9-(3,5-dichloro-4-pyridyl)-6-methoxybenzo[4,5]furo[2,3-d]pyridazine-9-carboxamide sodium salt] belongs 4.08 nM.
